≈ marks a conversion by molar mass, not a printed value. Where two headings read alike, the source gives them in different places.
How the values were obtained:
PY79 [1] = assay: MIC determination; type: cell-based; conditions: Bacillus subtilis
HU36 [2] = assay: MIC determination; type: cell-based; conditions: Bacillus
HU36 [3] = assay: Disc diffusion antibiogram; type: cell-based, Bacillus
PY79 [4] = assay: Disc diffusion antibiogram; conditions: 6 mm discs, amount per disc in brackets after each antibiotic, 18 h at 37° C., three experiments
Natto = assay: Disc diffusion antibiogram; conditions: 6 mm discs, amount per disc in brackets after each antibiotic, 18 h at 37° C., three experiments
[5] = Gastric stability of carotenoids in simulated gastric fluid (SGF); type: in vitro ADME; conditions: SGF (1 mg/ml pepsin, 0.9% NaCl, pH 2), 37° C., by 20 minutes, versus 0 minutes
[6] = strains with MICs equal or higher are considered resistant, cited from earlier work

`CC(C)(O/N=C(\C(=O)N[C@@H]1C(=O)N2C(C(=O)[O-])=C(C[n+]3ccccc3)CS[C@H]12)c1csc(N)n1)C(=O)O` [Ceftazidime] showed an MIC (PY79 [1]) of 0.025 µg/mL (≈ 0.0457 µM) and an MIC (HU36 [2]) of 0.05 µg/mL (≈ 0.0915 µM).
In the case of `O=C(O)c1cn(C2CC2)c2cc(N3CCNCC3)c(F)cc2c1=O` [Ciporfloxacin], the “Zone of inhibition (mm)” value (HU36 [3]) is reported as 29.7 ± 0.6 mm, the “Zone of inhibition (mm)” value (PY79 [4]) is reported as 32.8 ± 1 mm and the “Zone of inhibition (mm)” value (Natto) is reported as 33.3 ± 1.5 mm.
For `CCC[C@@H]1C[C@@H](C(=O)N[C@@H]([C@H]2O[C@H](SC)[C@H](O)[C@@H](O)[C@H]2O)[C@H](C)Cl)N(C)C1` [Clindamycin], the MIC (PY79 [1]) was 0.05 µg/mL (≈ 0.118 µM) and the MIC (HU36 [2]) was 8 µg/mL (≈ 18.8 µM).
In the case of `CCn1cc(C(=O)O)c(=O)c2ccc(C)nc21` [Naladixic acid], the “Zone of inhibition (mm)” value (HU36 [3]; HU36, 6 mm discs, amount per disc in brackets after each antibiotic, 18 h at 37° C., three experiments) is reported as 22.8 ± 1.4 mm, the “Zone of inhibition (mm)” value (PY79 [4]) is reported as 20.7 ± 1.2 mm and the “Zone of inhibition (mm)” value (Natto) is reported as 23 ± 1.7 mm.
With `CC1=C(/C=C/C(C)=C/C=C/C(C)=C/C=C/C=C(C)/C=C/C=C(C)/C=C/C2=C(C)CCCC2(C)C)C(C)(C)CCC1` [carotenoid standard, beta-carotene] the carotenoid remaining [5] was “less than 1%”.
For Gentamycin, the “Breakpoints EFSA” value ([6]; (EFSA, 2005)) is given as 4 mg/L and the “Breakpoints SCAN” value ([6]; (SCAN, 2002)) is given as 8 mg/L.
